# Target: alanyl aminopeptidases (APN) (Homo sapiens, UniProt P15144)
# Assay: Inhibition of alanyl aminopeptidase enzymatic activity, fluorogenic substrate (Ala)2-rhodamine 110
# Type: biochemical
# Details: Table 1, unstarred values; read-out: IC50APN
# Method: The inhibition characteristics measured are referred to as IC-50 values or ID50 values (the latter marked with “*”) for said enzyme. The enzymatic activity was determined by means of the fluorogenic substrate/product (Ala)2-rhodamine 110.
# Chain of alanyl aminopeptidases (APN) (P15144 whole entry, species assumed): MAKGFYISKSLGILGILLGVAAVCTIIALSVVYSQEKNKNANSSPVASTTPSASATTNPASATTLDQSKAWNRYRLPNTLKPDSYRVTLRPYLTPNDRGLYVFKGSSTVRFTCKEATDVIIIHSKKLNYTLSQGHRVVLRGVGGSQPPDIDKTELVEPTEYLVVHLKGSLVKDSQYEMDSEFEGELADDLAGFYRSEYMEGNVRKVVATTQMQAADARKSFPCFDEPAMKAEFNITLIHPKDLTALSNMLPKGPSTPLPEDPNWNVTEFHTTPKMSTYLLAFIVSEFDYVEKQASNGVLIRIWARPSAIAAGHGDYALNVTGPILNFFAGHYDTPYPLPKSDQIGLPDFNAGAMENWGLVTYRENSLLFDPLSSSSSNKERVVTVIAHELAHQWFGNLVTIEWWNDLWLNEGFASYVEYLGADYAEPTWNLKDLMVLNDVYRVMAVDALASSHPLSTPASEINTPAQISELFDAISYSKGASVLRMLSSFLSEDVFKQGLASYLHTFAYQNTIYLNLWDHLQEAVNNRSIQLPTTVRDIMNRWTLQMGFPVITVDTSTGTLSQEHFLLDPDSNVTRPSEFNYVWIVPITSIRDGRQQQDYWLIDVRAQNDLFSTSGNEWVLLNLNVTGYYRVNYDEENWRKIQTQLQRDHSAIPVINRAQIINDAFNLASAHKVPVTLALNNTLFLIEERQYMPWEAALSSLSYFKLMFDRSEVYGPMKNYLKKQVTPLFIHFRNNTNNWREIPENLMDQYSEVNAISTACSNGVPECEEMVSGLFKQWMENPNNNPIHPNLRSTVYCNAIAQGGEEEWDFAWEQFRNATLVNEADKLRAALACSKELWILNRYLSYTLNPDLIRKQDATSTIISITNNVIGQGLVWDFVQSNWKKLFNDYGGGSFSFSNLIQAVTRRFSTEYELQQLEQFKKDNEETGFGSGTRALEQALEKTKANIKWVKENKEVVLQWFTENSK
row,SMILES,IC50
1,O=C(O)C1N=NC(c2ccc(F)cc2)=CN1O (centres unmarked) [A1.011],17.1 µM

# Same assay, conditions: Table 3, starred values = ID50; read-out: ID50 APN (values marked with *)
row,SMILES,IC50
1,C/C(=N\NC(=O)c1cc(-c2ccco2)n[nH]1)c1ccco1 [A3.334],161 µM
2,CCCCc1noc2c1/C(=N/O)CC(c1ccccc1)C2 (centres unmarked) [A3.006],2.2 µM

# Same assay, conditions: Table 3, unstarred values; read-out: IC50APN
row,SMILES,IC50
1,Cc1[nH]c2ccccc2c1C(c1cc(Cl)ccc1O)N1CCOCC1 (centres unmarked) [A3.046],11.7 µM
2,O=C(CNC(=O)c1ccccc1Br)N/N=C/c1ccoc1 [A3.192],31.9 µM
3,Cc1ccc(/C=N/NC(=O)c2ccc(N3CCCC3=O)cc2)o1 [A3.241],44.2 µM
4,NC(=O)C1CCN(C(=O)/C(=C/c2ccco2)NC(=O)c2ccccc2)CC1 [A3.188],30.5 µM
5,Cc1ccc(Cn2c(SCCC(=O)O)nc3c2c(=O)n(C)c(=O)n3C)cc1 [A3.170],28 µM
6,Cc1ccc(C(=O)N/C(=C\c2ccco2)C(=O)N2CCCN(C)CC2)cc1C [A3.194],32.1 µM
7,C/C(=N\NC(=O)c1cc(-c2ccccc2)n[nH]1)c1ccco1 [A3.278],58.3 µM
8,O=c1[nH]c(/C=C/c2ccco2)cc2ccccc12 [A3.067],14.6 µM
9,CCOC(=O)c1ncn(C)c1N [A3.262],50.1 µM
10,O=C(CCc1ccccc1)N/N=C/c1ccco1 [A3.302],74.7 µM
11,CC1=NNC(=O)C1CCC(=O)N/N=C\C=C\c1ccco1 (centres unmarked) [A3.138],23 µM
12,O=C(N/N=C/C=C\c1ccco1)c1cccs1 [A3.282],62.7 µM
13,Cn1c(=O)[nH]c2nnc(-c3cccs3)nc2c1=O [A3.157],26.1 µM
14,O=C(N/N=C/c1ccco1)c1ccccc1[N+](=O)[O-] [A3.315],92.2 µM
15,COc1ccc(C(=O)N/N=C/c2ccco2)cc1 [A3.134],22.6 µM
16,O=C(N/N=C/c1cc(Br)cc(Br)c1OC(=O)c1ccccc1)/C(=C/c1ccc2c(c1)OCO2)NC(=O)c1ccccc1 [A3.101],19.8 µM
17,CCCOc1ccccc1-c1cc(C(=O)N/N=C/c2ccco2)[nH]n1 [A3.100],19.5 µM
18,COc1cc(Br)ccc1OCC(=O)N/N=C/c1cc(Br)c(O)c(O)c1Br [A3.109],20.5 µM
19,CC1=C(C#N)C(=O)N=C(O)/C1=C\c1ccc(-c2ccc(Cl)cc2Cl)o1 [A3.187],30.3 µM
20,CCOC(=O)c1cc(-c2ccc(/C=C3\C(=O)N(CCCO)C(=O)C(C#N)=C3C)o2)ccc1Cl [A3.233],41 µM
21,O=C(N/N=C/c1ccco1)c1ccc(F)cc1 [A3.296],68.9 µM

# Same assay, conditions: Table 4, starred values = ID50; read-out: ID50 APN (values marked with *)
row,SMILES,IC50
1,COc1cccc(C(=O)NCC(=O)N/N=C/c2ccc([N+](=O)[O-])o2)c1 [A4.183],222 µM
2,C/C(=N\NC(=O)c1cc(-c2ccco2)n[nH]1)c1ccco1 [A4.181],161 µM

# Same assay, conditions: Table 4, unstarred values; read-out: IC50APN
row,SMILES,IC50
1,Cc1ccc(/C=N/NC(=O)c2cn(-c3nonc3N)nn2)o1 [A4.016],10.9 µM
2,Cc1ccc(/C=N/NC(=O)c2cc(O)cc(O)c2)o1 [A4.083],26.4 µM
3,CC(=O)n1cc(/C=C/C=N/NC(=O)CC#N)c2ccccc21 [A4.113],35.5 µM
4,O=C(N/N=C/c1ccco1)c1ccc(NC(=O)c2ccccc2Cl)cc1 [A4.103],32.5 µM
5,O=C(N/N=C/c1ccco1)c1cccc(NC(=O)c2ccccc2Cl)c1 [A4.057],20.6 µM
6,CCc1ccc(-c2cc(C(=O)N/N=C/c3c(C)nn(-c4ccccc4)c3C)[nH]n2)cc1 [A4.027],13.6 µM
7,O=C(N/N=C/c1ccco1)c1cccc(NC(=O)c2ccccc2)c1 [A4.094],29.5 µM
8,Cc1ccc(/C=N/NC(=O)c2nnn(-c3nonc3N)c2CN2CCOCC2)o1 [A4.084],26.7 µM
9,Cc1nc(C)c(C(=O)N/N=C/c2ccco2)s1 [A4.021],12.3 µM
10,CCCOc1ccc(/C=C(\NC(=O)c2ccccc2)C(=O)N/N=C/c2ccco2)cc1 [A4.086],27.3 µM
11,CC(NC(=O)C(=O)N/N=C\c1cc([N+](=O)[O-])ccc1O)c1ccccc1 (centres unmarked) [A4.018],11.4 µM

# Same assay, conditions: Table 5, unstarred values; read-out: IC50APN
row,SMILES,IC50
1,CCCOc1[nH]c(/N=C/c2ccccc2)c(C#N)c1C#N [A5.004],20 µM

# Same assay, conditions: Table 7; read-out: IC50APN
row,SMILES,IC50
1,O=C1C(Cc2ccc3[nH]ccc3c2)NC(=S)N1c1ccccc1 (centres unmarked) [A7.012],36.9 µM

# Same assay, conditions: Table 8, starred values = ID50; read-out: ID50 APN (values marked with *)
row,SMILES,IC50
1,Cc1cccc[n+]1OC(=O)N1CCCCC1 [A8.038],96.7 µM
2,Cc1ccc(Cn2c(SCCC(=O)O)nc3c2c(=O)[nH]c(=O)n3C)cc1 [A8.033],53.2 µM
3,CCCC1NC(=S)N(c2ccccc2)C1=O (centres unmarked) [A8.040],154 µM

# Same assay, conditions: Table 8, unstarred values; read-out: IC50APN
row,SMILES,IC50
1,C/C(Cn1nnc([N+](=O)[O-])n1)=N/NC(=O)COc1ccccc1[N+](=O)[O-] [A8.002],3.4 µM
2,O=C1C(Cc2ccc(O)cc2)NC(=S)N1c1ccccc1 (centres unmarked) [A8.035],66.6 µM

# Same assay, conditions: Table 9, starred values = ID50; read-out: ID50 APN (values marked with *)
row,SMILES,IC50
1,C#CCN1C(c2cnccn2)=NC(CC(C)C)C1C(=O)Nc1c(C)cccc1C (centres unmarked) [A9.119],103 µM

# Same assay, conditions: Table 9, unstarred values; read-out: IC50APN
row,SMILES,IC50
1,COC(=O)c1ccc(-c2ccc(/C=C3\C(=O)N(CCCO)C(=O)C(C#N)=C3C)o2)cc1 [A9.008],5 µM
2,O=C(N/C(=C\c1ccco1)C(=O)N1CCCC(CO)C1)c1ccccc1 (centres unmarked) [A9.043],19 µM
3,Cc1ccccc1NC(=O)C1C(c2cccs2)C(C#N)=C(SCC(=O)Nc2ccc(Br)cc2)NC1(C)O (centres unmarked) [A9.087],33.9 µM
4,COc1ccc(/C=N/NC(=O)C2=C(C)Nc3ccccc3S2)cc1Cn1nc(C)c(Br)c1C [A9.007],4.8 µM
5,O=C(C1c2ccccc2Oc2ccccc21)n1cc(Cl)cn1 [A9.075],29.1 µM
6,CC1=C(C#N)C(=O)N(CC(C)O)C(=O)/C1=C/c1ccc(-c2cccc(Cl)c2C)o1 (centres unmarked) [A9.072],28.6 µM
7,O=C1c2cccc3c(Br)c([N+](=O)[O-])cc(c23)C(=O)N1c1cccc([N+](=O)[O-])c1 [A9.062],23.3 µM
8,Clc1ccc(-n2cc3c(-c4ccco4)nnc(-c4nc5ccccc5s4)c3n2)cc1 [A9.034],14.3 µM
9,COC(=O)c1ccccc1-c1ccc(/C=C2\C(=O)N(C)C(=O)C(C#N)=C2C)o1 [A9.071],28.1 µM
10,O=C(N/C(=C\c1ccco1)C(=O)N1CCOCC1)c1ccccc1Cl [A9.066],25.5 µM

# Same assay, conditions: Table 10; read-out: IC50APN
row,SMILES,IC50
1,Brc1cc2c(cc1Br)OCCOCCOCCOCCOCCO2 [A10.001],0.7 µM

# Same assay, conditions: Table 11; read-out: IC50APN
row,SMILES,IC50
1,O=C(Nc1ccc(F)cc1)c1ccc([NH+]([O-])O)o1 (centres unmarked) [A11.027],37.4 µM
2,O=C(N/C(=C\c1cccc([N+](=O)[O-])c1)C(=O)N(CCO)CCO)c1ccco1 [A11.037],244 µM
3,CC1CC(=O)N(C(=O)CCBr)c2ccc([N+](=O)[O-])cc2N1C(=O)CCBr (centres unmarked) [A11.033],99.8 µM
4,O=C(CC1(O)CCCCC1)N/N=C/c1ccccc1[N+](=O)[O-] [A11.023],31.1 µM
5,O=C(CNC(=O)c1ccccc1F)N/N=C/c1ccc([N+](=O)[O-])o1 [A11.032],60 µM
6,O=C(N/N=C/c1cc([N+](=O)[O-])ccc1O)c1ccc(O)cc1O [A11.013],20.2 µM
7,O=C(N/N=C(/CC(=O)c1cccs1)C(F)(F)F)c1cccc([N+](=O)[O-])c1 [A11.005],10.7 µM
8,C/C(=N\NC(=O)COc1ccc(C)cc1[NH+]([O-])O)c1ccco1 (centres unmarked) [A11.038],422 µM
9,O=c1[nH]cc([N+](=O)[O-])cc1C(F)(F)F [A11.021],29.9 µM

# Same assay, conditions: Table 12; read-out: IC50APN
row,SMILES,IC50
1,NCC(O)CNCCc1ccccc1 (centres unmarked) [A12.039],21.2 µM
2,Brc1cc2c(cc1Br)OCCOCCOCCOCCOCCO2 [A12.002],0.7 µM
3,CCOc1ccc(CC(=O)NO)cc1 [A12.013],7.5 µM
4,C/C(=N/O)c1ccc2c(c1)OCCOCCOc1cc(/C(C)=N\O)ccc1OCCOCCO2 [A12.017],8.6 µM

# Same assay, conditions: Table 13; read-out: IC50APN
row,SMILES,IC50
1,CC1=C(C#N)C(=O)N(CCCO)C(=O)/C1=C\c1ccc(-c2ccc(Br)cc2)o1 [A13.007],16 µM
2,COC(=O)c1cccc(-c2ccc(/C=C3\C(=O)N(CCO)C(=O)C(C#N)=C3C)o2)c1 [A13.004],6.3 µM
